Results from PMC5773487, “Harnessing insulin- and leptin-induced oxidation of PTP1B for therapeutic development” (Nature Communications, 2018).
“Also recorded” adds a separate entry of the source. Where two headings read alike, the source gives them in different places.

T1: PTP1B-OX (Homo sapiens, UniProt P18031)
T1 construct: Purified PTP1B (1–321) (100 nM) was mixed with increasing concentrations of H2O2; 6xHis (C); made in house; host or cells: E. coli BL21 (DE3)-RIL
T1 sequence (P18031 1-321): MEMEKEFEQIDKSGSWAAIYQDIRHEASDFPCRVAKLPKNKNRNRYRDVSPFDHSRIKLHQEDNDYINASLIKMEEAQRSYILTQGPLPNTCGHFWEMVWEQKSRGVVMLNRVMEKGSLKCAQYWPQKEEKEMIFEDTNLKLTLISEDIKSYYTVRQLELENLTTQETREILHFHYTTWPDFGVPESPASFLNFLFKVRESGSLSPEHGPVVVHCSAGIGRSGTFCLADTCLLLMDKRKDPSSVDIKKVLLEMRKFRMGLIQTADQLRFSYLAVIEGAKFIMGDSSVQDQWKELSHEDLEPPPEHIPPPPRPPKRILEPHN

B1: scFv45: recombinant conformation-sensor single-chain variable fragment antibody recognizing oxidized PTP1B (antibody, V domains shown)
VH: TVTLDESGGGLQAPGGALSLVCKASGFTFSSYDMGWIRQAPGKGLEYVAGITDNGRYASYGSAVDGRATISRDNGQSSVRLQLNNLRAEDTGTYYCARDDGSGWTGNSIDAWGHGTEVIVSE
VL: ALTQPSSVSANPGGTVKITCSGSSSAYGYGWYQQKSPGSAPVTVIYNNNKRPSNIPSRFSGSKSGSTGTLTITGVQAEDEAVYFCGSEDSSTDAIFGAGTTLTVL

Tests used:
[1] = tested on: high fat diet-fed C57Bl6/J mice; assay: body weight, glucose and insulin tolerance tests in diet-fed mice; format: in vivo; details: for glucose tolerance (GTT) / insulin sensitivity (ITT): HFD fed 14-week-old male mice; for glucose tolerance (GTT): D-glucose 2 mg g−1; for insulin sensitivity (ITT): insulin 0.75 mU g−1
Protocol: (§1) Animal experiments were performed according to protocols approved by the Institutional Animal Use and Care Committee of Cold Spring Harbor laboratory. Ten week-old male C57bl6/J mice fed chow diet or high fat diet (D12492) were acclimatized for 10 days under standard conditions before experiments. Mice were intraperitoneally (i.p.) injected once daily with vehicle, 3 mg kg^−1 of chelerythrine or 3 mg kg^−1 of protopine for 30 days. Mice were killed after 6 h of fasting, and serum samples were collected to measure the metabolic parameters and tissue samples were collected for studying changes in signaling. No animals were excluded from the analysis.
Glucose in tail blood was measured using a glucometer (One-Touch Basic; Lifescan, CA). For glucose tolerance tests (GTTs), mice were fasted for 10 h and then injected with 20% D-glucose (2 mg g^−1 body weight) and the blood glucose was monitored immediately before and at 15, 30, 60, and 120 min following the injection. For insulin tolerance tests (ITTs), 4 h fasted animals were given insulin (0.75 mU g^−1) and blood glucose was measured immediately before and at 30, 60, and 120 min post-injection. Statistical analysis was performed using ANOVA for both GTT and ITT.

PTP1B-OX [2] = molecular target: T1, PTP1B-OX; assay: reduction and reactivation of reversibly oxidized PTP1B by TCEP, DiFMUP substrate; format: biochemical; details: for inhibition of reduction and reactivation (stabilization) of PTP1B-OX: in words
Protocol: Therefore, our approach has been to adapt this assay, which we used to screen for conformation-sensor scFvs[17], now to screen for small molecules that act through a similar mechanism. Our primary screening assay tested the ability of small molecule inhibitors to antagonize the reduction and reactivation of the oxidized conformation of PTP1B, similar to that of scFv45 (Fig. 4a).
Purified PTP1B (1–321) (100 nM) was mixed with increasing concentrations of H2O2 (0.05–100 mM) in phosphatase assay buffer (50 mM HEPES, pH 7.0, 100 mM NaCl, 0.1% BSA) at room temperature for 5 min. From this reaction mixture PTP1B (10 nM) was used to monitor phosphatase activity using DiFMUP as the substrate, with or without 5 mM TCEP. Activity of each sample was compared to that of the untreated PTP1B in the presence of 5 mM TCEP.
To screen the LOPAC library against PTP1B-OX, 0.5 μl of 1 mM compound in 100% DMSO was added to 384-well plates, resulting in a final compound concentration of 10 μM for the primary screen. Recombinant PTP1B (100 nM) was reversibly oxidized and inactivated with H2O2 (4 mM). The phosphatase activity was restored by a quick buffer exchange and addition of reducing agent (TCEP). PTP1B-OX was incubated with LOPAC compounds (10 μM) in the assay buffer (50 mM HEPES pH 7.0, 100 mM NaCl, 0.005% Tween, 2 mM EDTA) and the effect of individual compound on stabilizing the reversibly oxidized conformation was assessed by the phosphatase assay under reducing conditions using DiFMUP as substrate. scFv45 was used as positive control.

[3] = tested on: insulin signaling in liver, leptin signaling in hypothalamus; assay: insulin and leptin signaling in liver and hypothalamus lysates of treated mice; format: in vivo; details: HFD mice
Protocol: Fig. 9 Chelerythrine improved metabolism and promoted insulin and leptin signaling in mice. a Body weight of male mice (C57bl6/J) fed high fat diet and treated with chelerythrine (3 mg kg^−1), protopine (3 mg kg^−1) or saline was monitored from the beginning of the treatment (10 weeks of age) until the study was terminated (14 weeks of age). Data represent the mean ± s.e.m. (n = 10 in each group). b HFD fed 14-week-old male mice treated with saline or chelerythrine were administered D-glucose (2 mg g^−1 body weight), and blood glucose was monitored over the defined time. Data represent the mean ± s.e.m. (n = 10 in each group) and statistical analysis was performed using two-way ANOVA (*p < 0.05, **p < 0.01). c HFD fed 14-week-old male mice treated with saline or chelerythrine were administered insulin (0.75 mU g^−^1 body weight), and blood glucose was monitored over the defined time. Data represent mean ± s.e.m. (n = 10 in each group) and statistical analysis was performed using two-way ANOVA (*p < 0.05). d Representative immunoblots showing insulin-induced tyrosine phosphorylation of IR-β and phosphorylation of AKT, and their corresponding total protein levels, in liver tissue lysates from 14-week-old male mice treated with saline, chelerythrine or protopine. For insulin stimulation, animals were treated with insulin (0.75 mU g^−1, i.p.) for 15 min. e Representative immunoblots showing leptin-induced tyrosine phosphorylation of JAK2 and corresponding total JAK2 levels in the hypothalamus tissue lysates from 14-week-old male mice treated with saline, chelerythrine or protopine. For leptin stimulation, animals were treated with leptin (1 mg kg^−^1, s.c.) for 15 min. All immunoblots are representative of tissue lysates generated from at least three independent animals for each condition (n = 3). Immunoblots were quantified using ImageJ software. Quantitation includes all independent data from the respective experiments and is presented as the mean ± s.e.m. d, e Statistical analysis was performed using two-way ANOVA (*p < 0.05)
as §1

PTP1B-OX [4] = molecular target: T1, PTP1B-OX; assay: reduction and reactivation of reversibly oxidized PTP1B by TCEP, DiFMUP substrate; format: biochemical
[5] = insulin 0.75 mU g−1 i.p. 15 min

Row | Molecule | glucose tolerance (GTT) [1] | insulin sensitivity (ITT) [1] | change in body weight, chow diet ([1]; chow diet-fed mice, 3 mg kg−1 i.p. once daily) | decrease in body weight ([1]; high fat diet-fed mice, 3 mg kg−1 i.p. once daily) | IC50 relative to sanguinarine (PTP1B-OX [2]) | preference for PTP1B-OX over reduced PTP1B (PTP1B-OX [2]) | Ki (PTP1B-OX [2]; DiFMUP substrate) [µM] | IC50 (PTP1B-OX [2]; wild-type PTP1B-OX, reactivation by TCEP, DiFMUP substrate, read-out: IC50 against PTP1B-OX) [µM] | AKT phosphorylation in liver [3, 5] | IR-β phosphorylation in liver [3, 5] | phosphorylation of JAK2 in hypothalamus ([3]; leptin 1 mg kg−1 s.c. 15 min) | reversibility of PTP1B-OX inhibition (PTP1B-OX [4]; complex diluted 100-fold, activity monitored 120 min) | weight loss in high fat diet-fed mice ([1]; 3 mg kg−1 i.p. once daily, in words) | inhibition of reduction and reactivation (stabilization) of PTP1B-OX (PTP1B-OX [2]) | Ki (PTP1B-OX [4]; intrabodies, phosphatase activity, read-out: Ki against oxidized PTP1B-wt) [µM]
1 | COc1ccc2c(c[n+](C)c3c4cc5c(cc4ccc23)OCO5)c1OC [chelerythrine] | improved | improved | no significant change | ~ 3% | fivefold lower | at least 100 fold | 5 | 5 | enhanced | marked increase | enhanced phosphorylation of JAK2 | reversible | – | – | –
2 | CN1CCc2cc3c(cc2C(=O)Cc2ccc4c(c2C1)OCO4)OCO3 [protopine] | did not improve | did not improve | – | – | – | – | – | – | – | not observed | – | – | not observed | did not inhibit; also recorded: ineffective; also recorded: did not stabilize | –
3 | B1 | – | – | – | – | – | – | – | – | – | – | – | – | – | impaired in a dose-dependent manner | 0.01
